Active and inactive are the calls of the source. The rule behind the calls is not given here.
Legend:
[1] = Cytotoxicity against human HL7702 cells incubated for 48 hrs by resazurin reagent based assay; type: toxicity, cell-based; conditions: HL7702 (L02) cells
[2] = target: NLR family CARD domain-containing protein 4 (Mus musculus) (UniProt Q3UP24); test: Inhibition of NLRC4 inflammasome in mouse J774.A1 cells assessed as inhibition of LPS/flagellin-induced IL-1 beta secretion at 10 uM pretreated with LPS and compound for 1 hr followed by flagellin addition measured after 6 hrs by ELISA; type: cell-based; conditions: time 7.0 hrs
J774.A1 [3] = test: Inhibition of NF-kappaB pathway in mouse J774.A1 cells assessed as inhibition of LPS-induced IL-6 secretion at 0.1 to 30 uM pretreated for 1hr followed by LPS addition for 6 hrs by ELISA; type: cell-based; conditions: dose 0.1-30 µM, time 7.0 hrs
J774.A1 [4] = test: […] of pyroptosis in mouse J774.A1 cells assessed as decrease in LDH release at 0.1 to 30 uM stimulated with LPS for 4.5 hs followed by incubation with compound for 30 mins and ATP addition for 30 mins by microplate reader assay; type: functional, cell-based; conditions: dose 0.1-30 µM, time 1.0 hrs
[5] = Half life in Sprague-Dawley rat at 1 mg/kg,iv measured after 24 hrs by HPLC-MS/MS analysis; type: ADME, organism-based; conditions: in vivo
[6] = Clearance in Sprague-Dawley rat at 1 mg/kg,iv measured after 24 hrs by HPLC-MS/MS analysis; type: ADME, organism-based; conditions: in vivo
[7] = Stability of compound in human plasma measured for 48 hrs; type: ADME, cell-free
[8] = Stability of compound in rat plasma measured for 48 hrs; type: ADME, cell-free
[9] = Drug distribution in Sprague-Dawley rat liver at 1 mg/kg,iv measured for 0.5 to 2 hrs by HPLC-MS/MS analysis; type: ADME, organism-based; conditions: in vivo, time 0.5-2 hrs
[10] = Drug distribution in Sprague-Dawley rat lung at 1 mg/kg,iv measured for 0.5 to 2 hrs by HPLC-MS/MS analysis; type: ADME, organism-based; conditions: in vivo, time 0.5-2 hrs
[11] = Drug distribution in Sprague-Dawley rat small intestine at 1 mg/kg,iv measured for 0.5 to 2 hrs by HPLC-MS/MS analysis; type: ADME, organism-based; conditions: in vivo, time 0.5-2 hrs
[12] = Drug distribution in Sprague-Dawley rat colon at 1 mg/kg,iv measured for 0.5 hrs by HPLC-MS/MS analysis; type: ADME, organism-based; conditions: read-out: Ct
[13] = Drug distribution in Sprague-Dawley rat plasma at 1 mg/kg,iv measured for 0.5 to 2 hrs by HPLC-MS/MS analysis; type: ADME, organism-based; conditions: in vivo, time 0.5-2 hrs
Mus musculus [14] = test: Anti-inflammatory activity in C57BL/6 mouse assessed as inhibition of LPS-induced IL-1beta secretion at 10 mg/kg,ip administrated for 1 hr followed by LPS stimulation for 2.5 hrs by ELISA analysis; type: functional, organism-based
Mus musculus [15] = test: Anti-inflammatory activity in C57BL/6 mouse assessed as inhibition of LPS-induced TNFF-alpha secretion at 10 mg/kg,ip administrated for 1 hr followed by LPS stimulation for 2.5 hrs by ELISA analysis; type: functional, organism-based
Mus musculus [16] = test: Anti-inflammatory activity in DSS-induced ulcerative colitis C57BL/6 mouse model assessed as reduction in inflammatory cell infiltration in colon at 10 mg/kg,ip administrated for 9 days by Hematoxylin-eosin staining based microscopic analysis; type: functional, organism-based; conditions: time 9.0 day
Mus musculus [17] = test: Anti-inflammatory activity in DSS-induced ulcerative colitis C57BL/6 mouse model assessed as reduction in mucosal damage in colon at 10 mg/kg,ip administrated for 9 days by Hematoxylin-eosin staining based microscopic analysis; type: functional, organism-based; conditions: time 9.0 day
Mus musculus [18] = test: Anti-inflammatory activity in DSS-induced ulcerative colitis C57BL/6 mouse model assessed as decrease in NLRP3 expression in colon at 10 mg/kg,ip administrated for 9 days by immunohistochemistry analysis; type: functional, organism-based; conditions: time 9.0 day
Mus musculus [19] = test: Anti-inflammatory activity in DSS-induced ulcerative colitis C57BL/6 mouse model assessed as decrease in NLRP3 protein expression in colon at 10 mg/kg,ip administrated for 9 days by Western blotting analysis; type: functional, organism-based; conditions: time 9.0 day
Mus musculus [20] = test: Anti-inflammatory activity in DSS-induced ulcerative colitis C57BL/6 mouse model assessed as decrease in pro-IL-1beta protein expression in colon at 10 mg/kg,ip administrated for 9 days by Western blotting analysis; type: functional, organism-based; conditions: time 9.0 day
[21] = Acute toxicity in Kunming mouse model assessed as lethal dose at IG administration for 7 days; conditions: in vivo, po, time 7 day
[22] = Acute toxicity in Kunming mouse model assessed as behavioral abnormalities at 1000 mg/kg,IG administration for 7 days; type: organism-based; conditions: in vivo, po, 168 h, time 7 day
[23] = Acute toxicity in Kunming mouse model assessed as lethargy at 1000 mg/kg,IG administration for 7 days; type: organism-based; conditions: in vivo, po, 168 h, time 7 day
[24] = Acute toxicity in Kunming mouse model assessed as anorexia at 2000 mg/kg,IG administration for 7 days; type: organism-based; conditions: in vivo, po, 168 h, time 7 day
[25] = Acute toxicity in Kunming mouse model assessed as ruffled fur at 2000 mg/kg,IG administration for 7 days; type: organism-based; conditions: in vivo, po, 168 h, time 7 day
[26] = Subacute toxicity in C57BL/6 mouse assessed as body weight gain at 10 mg/kg,ip administrated for 14 days; type: organism-based; conditions: in vivo, 336 h, time 14 day
[27] = Subacute toxicity in C57BL/6 mouse assessed as body weight gain at 100 mg/kg,ip administrated for 14 days; type: organism-based; conditions: in vivo, 336 h, time 14 day
[28] = Subacute toxicity in C57BL/6 mouse assessed as change in heart weight at 10 mg/kg,ip administrated for 14 days; type: organism-based; conditions: in vivo, 336 h, time 14 day
[29] = Subacute toxicity in C57BL/6 mouse assessed as change in liver weight at 10 mg/kg,ip administrated for 14 days; type: organism-based; conditions: in vivo, 336 h, time 14 day
[30] = Subacute toxicity in C57BL/6 mouse assessed as change in liver weight at 100 mg/kg,ip administrated for 14 days; type: organism-based; conditions: in vivo, 336 h, time 14 day
[31] = Subacute toxicity in C57BL/6 mouse assessed as change in spleen weight at 10 mg/kg,ip administrated for 14 days; type: organism-based; conditions: in vivo, 336 h, time 14 day
[32] = Subacute toxicity in C57BL/6 mouse assessed as change in spleen weight at 100 mg/kg,ip administrated for 14 days; type: organism-based; conditions: in vivo, 336 h, time 14 day
[33] = Subacute toxicity in C57BL/6 mouse assessed as change in lung weight at 10 mg/kg,ip administrated for 14 days; type: organism-based; conditions: in vivo, 336 h, time 14 day
[34] = Subacute toxicity in C57BL/6 mouse assessed as change in lung weight at 100 mg/kg,ip administrated for 14 days; type: organism-based; conditions: in vivo, 336 h, time 14 day
[35] = Subacute toxicity in C57BL/6 mouse assessed as change in colon weight at 100 mg/kg,ip administrated for 14 days; type: organism-based; conditions: in vivo, 336 h, time 14 day
[36] = Subacute toxicity in C57BL/6 mouse assessed as heart histological changes at 10 mg/kg,ip administrated for 14 days; type: organism-based; conditions: in vivo, 336 h, time 14 day
[37] = Subacute toxicity in C57BL/6 mouse assessed as heart histological changes at 100 mg/kg,ip administrated for 14 days; type: organism-based; conditions: in vivo, 336 h, time 14 day
[38] = Subacute toxicity in C57BL/6 mouse assessed as lung histological changes at 10 mg/kg,ip administrated for 14 days; type: organism-based; conditions: in vivo, 336 h, time 14 day
[39] = Subacute toxicity in C57BL/6 mouse assessed as lung histological changes at 100 mg/kg,ip administrated for 14 days; type: organism-based; conditions: in vivo, 336 h, time 14 day
[40] = Subacute toxicity in C57BL/6 mouse assessed as kidney histological changes at 100 mg/kg,ip administrated for 14 days; type: organism-based; conditions: in vivo, 336 h, time 14 day

Sequence of NLR family CARD domain-containing protein 4 (Mus musculus) (Q3UP24 whole entry, the tested form may be a part): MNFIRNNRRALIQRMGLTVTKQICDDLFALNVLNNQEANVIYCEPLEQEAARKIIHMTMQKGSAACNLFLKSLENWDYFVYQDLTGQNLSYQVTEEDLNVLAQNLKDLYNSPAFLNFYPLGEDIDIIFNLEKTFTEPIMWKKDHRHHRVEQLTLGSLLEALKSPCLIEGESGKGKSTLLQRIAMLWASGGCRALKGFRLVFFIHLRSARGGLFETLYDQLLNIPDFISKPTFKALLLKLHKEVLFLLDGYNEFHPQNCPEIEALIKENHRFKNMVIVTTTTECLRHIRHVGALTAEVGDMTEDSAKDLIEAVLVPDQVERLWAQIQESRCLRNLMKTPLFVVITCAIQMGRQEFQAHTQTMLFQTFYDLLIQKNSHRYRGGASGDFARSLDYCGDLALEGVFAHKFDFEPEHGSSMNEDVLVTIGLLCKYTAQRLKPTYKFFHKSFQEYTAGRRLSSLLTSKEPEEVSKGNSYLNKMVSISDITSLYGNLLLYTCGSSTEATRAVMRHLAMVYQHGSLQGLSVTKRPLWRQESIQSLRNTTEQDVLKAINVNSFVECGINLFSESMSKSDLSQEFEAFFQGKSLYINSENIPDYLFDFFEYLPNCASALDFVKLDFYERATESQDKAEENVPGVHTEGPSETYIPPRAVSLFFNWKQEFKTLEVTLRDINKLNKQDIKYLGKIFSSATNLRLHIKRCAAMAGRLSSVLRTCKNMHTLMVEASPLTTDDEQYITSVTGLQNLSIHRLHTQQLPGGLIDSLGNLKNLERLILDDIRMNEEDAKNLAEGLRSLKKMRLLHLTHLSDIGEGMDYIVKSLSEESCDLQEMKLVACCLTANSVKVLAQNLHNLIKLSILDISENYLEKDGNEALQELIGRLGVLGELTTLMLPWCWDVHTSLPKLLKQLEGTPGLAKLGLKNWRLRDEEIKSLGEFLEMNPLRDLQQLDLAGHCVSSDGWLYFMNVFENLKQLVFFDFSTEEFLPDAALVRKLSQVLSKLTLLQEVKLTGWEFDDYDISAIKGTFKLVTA

CCCNS(=O)(=O)c1ccc2c(c1)CC(N(Cc1cc(Cl)ccc1OCCOC)C(=O)c1cc3ccccc3o1)C2 (racemic)
CC50 at 48 h [1]: > 1000 µM | inhibition [2]: inactive | inhibition (J774.A1 [3]): inactive | Activity (J774.A1 [4]): Active | half-life [5]: 1.5 h | clearance [6]: 78.4 mL/min/kg | Stability [7]: Stable | Stability [8]: Stable | Drug uptake [9]: Active | Drug uptake [10]: Active | Drug uptake [11]: Active | concentration at 0.5 h [12]: 35300 ng/g | Cp [13]: 2094.04 ng/g | Activity (Mus musculus [14]): Active | Activity (Mus musculus [15]): Active | Activity (Mus musculus [16]): Active | Activity (Mus musculus [17]): Active | Activity (Mus musculus [18]): Active | Activity (Mus musculus [19]): Active | Activity (Mus musculus [20]): Active | LD50 at 168 h [21]: 2000 mg/kg | Activity [22]: Non-Toxic | Activity [23]: Non-Toxic | Activity [24]: Non-Toxic | Activity [25]: Non-Toxic | Activity [26]: Toxic | Activity [27]: Toxic | Activity [28]: Non-Toxic | Activity [29]: Non-Toxic | Activity [30]: Non-Toxic | Activity [31]: Non-Toxic | Activity [32]: Non-Toxic | Activity [33]: Non-Toxic | Activity [34]: Non-Toxic | Activity [35]: Non-Toxic | Activity [36]: Non-Toxic | Activity [37]: Non-Toxic | Activity [38]: Non-Toxic | Activity [39]: Non-Toxic | Activity [40]: Non-Toxic
